The source made the active and inactive calls. The rule behind the calls is not given here.
Columns and labels:
HT-22 [1] = experiment: Antioxidant activity against OGD/R induced oxidative stress in mouse HT-22 cells assessed as reduction in ROS release level at 1 to 10 uM by DCFH-DA staining based flow cytometry analysis; type: functional, cell-based; conditions: dose 1-10 µM
HT-22 [2] = experiment: Cytoprotective activity against OGD/R induced mouse HT-22 cells assessed as inhibition of intracellular LDH release at 10 uM; type: functional, cell-based
BV-2 = experiment: Anti-inflammatory activity against OGD/R and erastin induced ferroptosis in mouse BV-2 cells assessed as inhibition of IL-6 production preincubated for 6 hrs followed by OGD addition and measured after 1 hr by ELISA method; type: functional, cell-based; conditions: dose 10-40 µM, time 7.0 hrs
HT-22 [3] = experiment: Induction of morphological changes in OGD/R induced mouse HT-22 cells assessed as attenuation of cell shrinkage by microscopic based analysis; type: functional
HT-22 [4] = experiment: Induction of morphological changes in OGD/R induced mouse HT-22 cells assessed as attenuation of cell rounding by microscopic based analysis; type: functional
[5] = target: T1, Nuclear factor erythroid 2-related factor 2 (Mus musculus) (UniProt Q60795); experiment: Activation of Nrf2 in OGD/R induced mouse HT-22 cells assessed as induction of Nrf2 nuclear translocation at 1 to 10 uM by immunofluorescence analysis; type: cell-based; conditions: filed as activator, dose 1-10 µM
T1 sequence (whole entry): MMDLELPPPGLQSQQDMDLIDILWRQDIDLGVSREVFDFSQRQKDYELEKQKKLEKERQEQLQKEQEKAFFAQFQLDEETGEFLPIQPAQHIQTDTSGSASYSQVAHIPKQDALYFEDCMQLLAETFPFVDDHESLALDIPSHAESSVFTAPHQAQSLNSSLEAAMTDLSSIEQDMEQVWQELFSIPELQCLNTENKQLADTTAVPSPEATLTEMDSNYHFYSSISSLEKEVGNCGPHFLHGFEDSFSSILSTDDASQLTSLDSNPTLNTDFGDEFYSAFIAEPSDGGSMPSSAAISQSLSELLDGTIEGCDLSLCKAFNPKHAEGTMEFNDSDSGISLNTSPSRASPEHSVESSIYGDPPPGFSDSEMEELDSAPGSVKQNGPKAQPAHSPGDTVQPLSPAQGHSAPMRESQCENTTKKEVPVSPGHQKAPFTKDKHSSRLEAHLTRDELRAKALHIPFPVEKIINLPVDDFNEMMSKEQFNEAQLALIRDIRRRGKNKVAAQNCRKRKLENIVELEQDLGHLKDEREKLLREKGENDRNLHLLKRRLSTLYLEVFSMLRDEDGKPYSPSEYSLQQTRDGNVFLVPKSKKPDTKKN

HT-22 [6] = experiment: Upregulation of HO-1 protein level in OGD/R induced mouse HT-22 cells at 1 to 10 uM by Western blot analysis; type: functional, cell-based; conditions: dose 1-10 µM
HT-22 [7] = experiment: Upregulation of NQO1 protein level in OGD/R induced mouse HT-22 cells at 1 to 10 uM by Western blot analysis; type: functional, cell-based; conditions: dose 1-10 µM
HT-22 [8] = experiment: Upregulation of GPX4 protein level in OGD/R induced mouse HT-22 cells at 1 to 10 uM by Western blot analysis; type: functional, cell-based; conditions: dose 1-10 µM
HT-22 [9] = experiment: Antioxidant activity against OGD/R induced oxidative stress in mouse HT-22 cells assessed as reduction in ROS release level at 10 uM in presence of ML385by DCFH-DA staining based flow cytometry analysis; type: functional, cell-based
HT-22 [10] = experiment: Anti-ferroptotic activity against OGD/R induced mouse HT-22 cells decrease as in Fe2+ level at 10 uM by cell ferrous calorimetry analysis; type: functional, cell-based
HT-22 [11] = experiment: Anti-ferroptotic activity against OGD/R induced mouse HT-22 cells decrease as in Fe2+ level at 10 uM in presence of ML385 by cell ferrous calorimetry analysis; type: functional, cell-based
HT-22 [12] = experiment: Anti-ferroptotic activity against OGD/R induced mouse HT-22 cells increase in GSH level at 10 uM; type: functional, cell-based
HT-22 [13] = experiment: Anti-ferroptotic activity against OGD/R induced mouse HT-22 cells decrease in MDA level at 10 uM in presence of ML385; type: functional, cell-based
HT-22 [14] = experiment: Upregulation of HO-1 protein level in OGD/R induced mouse HT-22 cells at 10 uM in presence of ML385 by Western blot analysis; type: functional, cell-based
Mus musculus [15] = experiment: Neuroprotective activity against MCAO-R induced 12 hrs fasted male C57BL/6J mouse model assessed as reduction in infarct volume administered as ip once a day for 7 days by TTC staining based analysis; type: functional, organism-based; conditions: time 7.0 day
Mus musculus [16] = experiment: Neuroprotective activity against MCAO-R induced 12 hrs fasted male C57BL/6J mouse model assessed as improvement in brain tissue structure at 10 to 50 mg/kg, ip administered once a day for 7 days by H and E staining based analysis; type: functional, organism-based; conditions: dose 10-50 mg/kg, time 7.0 day
Mus musculus [17] = experiment: Neuroprotective activity against MCAO-R induced 12 hrs fasted male C57BL/6J mouse model assessed as decrease in MDA level in cerebral ischemic tissue at 10 to 50 mg/kg, ip administered once a day for 7 days; type: functional, organism-based; conditions: dose 10-50 mg/kg, time 7.0 day
Mus musculus [18] = experiment: Neuroprotective activity against MCAO-R induced 12 hrs fasted male C57BL/6J mouse model assessed as increase in SOD activity in cerebral ischemic tissue at 10 to 50 mg/kg, ip administered once a day for 7 days; type: functional, organism-based; conditions: dose 10-50 mg/kg, time 7.0 day
Mus musculus [19] = species on record: Mus musculus; experiment: Antiinflammatory activity in MCAO-R induced 12 hrs fasted male C57BL/6J mouse model assessed as reduction in TNF-alpha level by ELISA method; type: functional, organism-based
Mus musculus [20] = species on record: Mus musculus; experiment: Antiinflammatory activity in MCAO-R induced 12 hrs fasted male C57BL/6J mouse model assessed as reduction in IL-18 level by ELISA method; type: functional, organism-based
Mus musculus [21] = experiment: Neuroprotective activity against MCAO-R induced 12 hrs fasted male C57BL/6J mouse model assessed as decrease in S100 expression in CA3 by measuring decrease in fluorescence intensity administered once a day as ip dose for 7 days by immunofluorescence method; type: functional, organism-based; conditions: dose 10-50 mg/kg, time 7.0 day
Mus musculus [22] = experiment: Neuroprotective activity against MCAO-R induced 12 hrs fasted male C57BL/6J mouse model assessed as decrease in S100 expression in CA1 by measuring decrease in fluorescence intensity administered once a day as ip dose for 7 days by immunofluorescence method; type: functional, organism-based; conditions: dose 10-50 mg/kg, time 7.0 day
[23] = target: Phospholipid hydroperoxide glutathione peroxidase GPX4 (Mus musculus) (UniProt O70325); experiment: In vivo activation of Nrf2 pathway in MCAO-R induced 12 hrs fasted male C57BL/6J mouse model assessed as increase in GPX4 expression level at 10 to 50 mg/kg, ip by Western blot analysis; type: functional, organism-based; conditions: dose 10-50 mg/kg
Mus musculus [24] = experiment: In vivo activation of Nrf2 pathway in MCAO-R induced 12 hrs fasted male C57BL/6J mouse model assessed as increase in HO-1 expression level at 10 to 50 mg/kg, ip by Western blot analysis; type: functional, organism-based; conditions: dose 10-50 mg/kg
Mus musculus [25] = experiment: Neuroprotective activity against MCAO-R induced 12 hrs fasted male C57BL/6J mouse model assessed as reduction in infarct volume at 25 mg/kg, ip for 7 days by TTC staining based analysis; type: functional, organism-based; conditions: time 7.0 day
Mus musculus [26] = experiment: Neuroprotective activity against MCAO-R induced 12 hrs fasted male C57BL/6J mouse model assessed as reduction in neurologic deficit score at 10 to 50 mg/kg, ip for 7 days by […]; type: functional, organism-based; conditions: dose 10-50 mg/kg, time 7.0 day

Chain of Phospholipid hydroperoxide glutathione peroxidase GPX4 (Mus musculus) (O70325 whole entry): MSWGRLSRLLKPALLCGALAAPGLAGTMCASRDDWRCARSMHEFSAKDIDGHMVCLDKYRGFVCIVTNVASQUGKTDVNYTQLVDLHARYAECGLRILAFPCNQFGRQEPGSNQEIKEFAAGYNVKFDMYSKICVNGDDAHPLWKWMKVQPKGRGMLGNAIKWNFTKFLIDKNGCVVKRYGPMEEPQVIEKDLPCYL

Cc1ccc(C(=O)NCCc2c[nH]c3ccc(N(C)C)cc23)c(O)c1
Activity (HT-22 [1]): Active
Activity (HT-22 [2]): Active
Activity (BV-2): Dose-Dependent Effect
Activity (HT-22 [3]): Active
Activity (HT-22 [4]): Active
Activity [5]: Active
Activity (HT-22 [6]): Active
Activity (HT-22 [7]): Active
Activity (HT-22 [8]): Active
Activity (HT-22 [9]): inactive
Activity (HT-22 [10]): Active
Activity (HT-22 [11]): inactive
Activity (HT-22 [12]): Active
Activity (HT-22 [13]): inactive
Activity (HT-22 [14]): inactive
Activity (Mus musculus [15]): Dose-Dependent Effect
Activity (Mus musculus [16]): Active
Activity (Mus musculus [17]): Active
Activity (Mus musculus [18]): Active
Activity (Mus musculus [19]): Active
Activity (Mus musculus [20]): Active
Activity (Mus musculus [21]): Dose-Dependent Effect
Activity (Mus musculus [22]): Dose-Dependent Effect
Activity [23]: Active
Activity (Mus musculus [24]): Active
Activity (Mus musculus [25]): Active
Activity (Mus musculus [26]): Active

From ChEMBL document CHEMBL5614422, “Design, synthesis and biological evaluation of N-salicyloyl tryptamine derivatives as multifunctional neuroprotectants for the treatment of ischemic stroke” (Eur J Med Chem, 2024)
